In US11006631B2, “Substituted pyrimidinyloxy pyridine derivatives as herbicides” (FMC Corporation, priority 2015, dated 2021):

How the values were obtained:
Format in all cases: in vivo
[1] = test system: pigweed (Amaranthus retroflexus); test: Test A postemergence, pigweed; settings: 0 to 100 scale
Excerpt: (§1) Seeds of plant species selected from bamyardgrass (Echinochloa crus-galli), kochia (Kochia scoparia), ragweed (common ragweed, Ambrosia elatior), ryegrass, Italian (Italian ryegrass, Lolium multiflorum), foxtail, giant (giant foxtail, Setaria faberii), pigweed (Amaranthus retroflexus), crabgrass, large (large crabgrass, Digitaria sanguinalis), momingglory (Ipomoea spp.), velvetleaf (Abutilon theophrasti), wheat (Triticum aestivum), and corn (Zea mays) were planted into a blend of loam soil and sand and treated preemergence with a directed soil spray using test chemicals formulated in a non-phytotoxic solvent mixture which included a surfactant. At the same time, plants selected from these crop and weed species and also blackgrass (Alopecurus myosuroides), and galium (catchweed bedstraw, Galium aparine) were planted in pots containing the same blend of loam soil and sand and treated with postemergence applications of test chemicals formulated in the same manner. Plants ranged in height from 2 to 10 cm and were in the one- to two-leaf stage for the postemergence treatment. Treated plants and untreated controls were maintained in a greenhouse for approximately 10 days, after which time all treated plants were compared to untreated controls and visually evaluated for injury. Plant response ratings, summarized in Table A, are based on a 0 to 100 scale where 0 is no effect and 100 is complete control. A dash (-) response means no test result.

[2] = test system: ragweed (common ragweed, Ambrosia elatior); test: Test A postemergence, ragweed; settings: 0 to 100 scale
Excerpt: as §1

[3] = test system: ragweed (common ragweed, Ambrosia elatior); test: Test A preemergence, ragweed; settings: 0 to 100 scale
Excerpt: as §1

[4] = test system: ducksalad (Heteranthera limosa); test: Test B flooded paddy test, ducksalad; settings: Flood, 250 g ai/ha; scale of 0 to 100
Procedure: (§2) Plant species in the flooded paddy test selected from rice (Oryza sativa), sedge, umbrella (small-flower umbrella sedge, Cyperus difformis), ducksalad (Heteranthera limosa), and barnyardgrass (Echinochloa crus-galli) were grown to the 2-leaf stage for testing. At time of treatment, test pots were flooded to 3 cm above the soil surface, treated by application of test compounds directly to the paddy water, and then maintained at that water depth for the duration of the test. Treated plants and controls were maintained in a greenhouse for 13 to 15 days, after which time all species were compared to controls and visually evaluated. Plant response ratings, summarized in Table B, are based on a scale of 0 to 100 where 0 is no effect and 100 is complete control. A dash (-) response means no test result.

[5] = test system: barnyardgrass (Echinochloa crus-galli); test: Test B flooded paddy test, barnyardgrass; settings: Flood, 250 g ai/ha; scale of 0 to 100
Procedure: as §2

kochia (Kochia scoparia) [6] = test: Test A postemergence, kochia; settings: 0 to 100 scale
Excerpt: as §1

[7] = test system: barnyardgrass (Echinochloa crus-galli); test: Test A preemergence, barnyardgrass; settings: 0 to 100 scale
Excerpt: as §1

kochia (Kochia scoparia) [8] = test: Test A preemergence, kochia; settings: 0 to 100 scale
Excerpt: as §1

[9] = test system: wheat (Triticum aestivum); test: Test A postemergence, wheat; settings: 0 to 100 scale
Excerpt: as §1

[10] = test system: ryegrass, Italian (Italian ryegrass, Lolium multiflorum); test: Test A postemergence, ryegrass, Italian; settings: 0 to 100 scale
Excerpt: as §1

[11] = test system: barnyardgrass (Echinochloa crus-galli); test: Test A postemergence, barnyardgrass; settings: 0 to 100 scale
Excerpt: as §1

rice (Oryza sativa) = test: Test B flooded paddy test, rice; settings: Flood, 250 g ai/ha; scale of 0 to 100
Procedure: as §2

[12] = test system: pigweed (Amaranthus retroflexus); test: Test A preemergence, pigweed; settings: 0 to 100 scale
Excerpt: as §1

corn (Zea mays) = test: Test A postemergence, corn; settings: 0 to 100 scale
Excerpt: as §1

[13] = test system: sedge, umbrella (small-flower umbrella sedge, Cyperus difformis); test: Test B flooded paddy test, sedge, umbrella; settings: Flood, 250 g ai/ha; scale of 0 to 100
Procedure: as §2

[14] = test system: blackgrass (Alopecurus myosuroides); test: Test A postemergence, blackgrass; settings: 0 to 100 scale
Excerpt: as §1

[15] = test system: foxtail, giant (giant foxtail, Setaria faberii); test: Test A preemergence, foxtail, giant; settings: 0 to 100 scale
Excerpt: as §1

[16] = test system: foxtail, giant (giant foxtail, Setaria faberii); test: Test A postemergence, foxtail, giant; settings: 0 to 100 scale
Excerpt: as §1

[17] = test system: galium (catchweed bedstraw, Galium aparine); test: Test A postemergence, galium; settings: 0 to 100 scale
Excerpt: as §1

[18] = test system: ryegrass, Italian (Italian ryegrass, Lolium multiflorum); test: Test A preemergence, ryegrass, Italian; settings: 0 to 100 scale
Excerpt: as §1

| SMILES | Plant response rating, Pigweed ([1]; 31 g ai/ha) | Plant response rating, Pigweed ([1]; 125 g ai/ha) | Plant response rating, Ragweed ([2]; 31 g ai/ha) | Plant response rating, Ragweed ([2]; 125 g ai/ha) | Plant response rating, Ragweed ([3]; 31 g ai/ha) | Plant response rating, Ragweed ([3]; 125 g ai/ha) | Plant response rating, Ducksalad [4] | Plant response rating, Barnyardgrass [5] | Plant response rating, Kochia (kochia (Kochia scoparia) [6]; 31 g ai/ha) | Plant response rating, Kochia (kochia (Kochia scoparia) [6]; 125 g ai/ha) | Plant response rating, Barnyardgrass ([7]; 31 g ai/ha) | Plant response rating, Barnyardgrass ([7]; 125 g ai/ha) | Plant response rating, Kochia (kochia (Kochia scoparia) [8]; 31 g ai/ha) | Plant response rating, Kochia (kochia (Kochia scoparia) [8]; 125 g ai/ha) | Plant response rating, Wheat ([9]; 31 g ai/ha) | Plant response rating, Wheat ([9]; 125 g ai/ha) | Plant response rating, Ryegrass, Italian ([10]; 31 g ai/ha) | Plant response rating, Ryegrass, Italian ([10]; 125 g ai/ha) | Plant response rating, Barnyardgrass ([11]; 31 g ai/ha) | Plant response rating, Barnyardgrass ([11]; 125 g ai/ha) | also measured |
| --- | --- | --- | --- | --- | --- | --- | --- | --- | --- | --- | --- | --- | --- | --- | --- | --- | --- | --- | --- | --- | --- |
| FC(F)c1cc(-c2ncccc2Oc2ncc(Cl)cn2)no1 [Compound 6, 5-chloro-2-[[2-[5-(difluoromethyl)-3-isoxazolyl]-3-pyridinyl]oxy]pyrimidine] | 70 | 100 | 20 | 40 | 0 | 50 | 30 | 0 | 90 | 100 | 0 | 70 | 60 | 90 | 20 | 30 | 0 | 10 | 10 | 30 | Plant response rating, Rice (rice (Oryza sativa)): 0; Plant response rating, Pigweed ([12]; 31 g ai/ha): 90; Plant response rating, Pigweed ([12]; 125 g ai/ha): 100; Plant response rating, Corn (corn (Zea mays); 31 g ai/ha): 20; Plant response rating, Corn (corn (Zea mays); 125 g ai/ha): 30; Plant response rating, Sedge, Umbrella [13]: 0; Plant response rating, Blackgrass ([14]; 31 g ai/ha): 0; Plant response rating, Blackgrass ([14]; 125 g ai/ha): 20; Plant response rating, Foxtail, Giant ([15]; 31 g ai/ha): 0; Plant response rating, Foxtail, Giant ([15]; 125 g ai/ha): 90; Plant response rating, Foxtail, Giant ([16]; 31 g ai/ha): 20; Plant response rating, Foxtail, Giant ([16]; 125 g ai/ha): 40; Plant response rating, Galium ([17]; 31 g ai/ha): 50; Plant response rating, Galium ([17]; 125 g ai/ha): 70; Plant response rating, Ryegrass, Italian ([18]; 31 g ai/ha): 0; Plant response rating, Ryegrass, Italian ([18]; 125 g ai/ha): 0 |
| Fc1cnc(Oc2cccnc2-c2cc(C(F)F)no2)nc1 [Compound 7] | 20 | 70 | 0 | 10 | 0 | 30 | 50 | 0 | 70 | 90 | 0 | 20 | 20 | 70 | 0 | 20 | 0 | 0 | 0 | 0 | Plant response rating, Rice (rice (Oryza sativa)): 0; Plant response rating, Pigweed ([12]; 31 g ai/ha): 70; Plant response rating, Pigweed ([12]; 125 g ai/ha): 100; Plant response rating, Corn (corn (Zea mays); 31 g ai/ha): 0; Plant response rating, Corn (corn (Zea mays); 125 g ai/ha): 0; Plant response rating, Sedge, Umbrella [13]: 0; Plant response rating, Blackgrass ([14]; 31 g ai/ha): 0; Plant response rating, Blackgrass ([14]; 125 g ai/ha): 0; Plant response rating, Foxtail, Giant ([15]; 31 g ai/ha): 0; Plant response rating, Foxtail, Giant ([15]; 125 g ai/ha): 20; Plant response rating, Foxtail, Giant ([16]; 31 g ai/ha): 0; Plant response rating, Foxtail, Giant ([16]; 125 g ai/ha): 0; Plant response rating, Galium ([17]; 31 g ai/ha): 20; Plant response rating, Galium ([17]; 125 g ai/ha): 50; Plant response rating, Ryegrass, Italian ([18]; 31 g ai/ha): 0; Plant response rating, Ryegrass, Italian ([18]; 125 g ai/ha): 0 |
| [O-][n+]1cccc(Oc2ncc(Cl)cn2)c1-c1cc(C(F)F)on1 [Compound 8, 5-chloro-2-[[2-[5-(difluoromethyl)-3-isoxazolyl]-1-oxido-3-pyridinyl]oxy]pyrimidine] | 50 | 70 | 30 | 50 | 0 | 0 | 40 | 0 | 40 | 70 | 0 | 0 | 0 | 40 | 10 | 20 | 0 | 0 | 0 | 10 | Plant response rating, Rice (rice (Oryza sativa)): 0; Plant response rating, Pigweed ([12]; 31 g ai/ha): 40; Plant response rating, Pigweed ([12]; 125 g ai/ha): 90; Plant response rating, Corn (corn (Zea mays); 31 g ai/ha): 0; Plant response rating, Corn (corn (Zea mays); 125 g ai/ha): 20; Plant response rating, Sedge, Umbrella [13]: 0; Plant response rating, Blackgrass ([14]; 31 g ai/ha): 0; Plant response rating, Blackgrass ([14]; 125 g ai/ha): 10; Plant response rating, Foxtail, Giant ([15]; 31 g ai/ha): 0; Plant response rating, Foxtail, Giant ([15]; 125 g ai/ha): 10; Plant response rating, Foxtail, Giant ([16]; 31 g ai/ha): 0; Plant response rating, Foxtail, Giant ([16]; 125 g ai/ha): 10; Plant response rating, Galium ([17]; 31 g ai/ha): 40; Plant response rating, Galium ([17]; 125 g ai/ha): 60; Plant response rating, Ryegrass, Italian ([18]; 31 g ai/ha): 0; Plant response rating, Ryegrass, Italian ([18]; 125 g ai/ha): 0 |
| [O-][n+]1cccc(Oc2ncc(F)cn2)c1-n1cc(Cl)cn1 [Compound 9] | 30 | 50 | 10 | 30 | 0 | 0 | 0 | 0 | 10 | 50 | 0 | 0 | 0 | 0 | 0 | 0 | 0 | 0 | 0 | 0 | Plant response rating, Rice (rice (Oryza sativa)): 0; Plant response rating, Pigweed ([12]; 31 g ai/ha): 0; Plant response rating, Pigweed ([12]; 125 g ai/ha): 20; Plant response rating, Corn (corn (Zea mays); 31 g ai/ha): 0; Plant response rating, Corn (corn (Zea mays); 125 g ai/ha): 0; Plant response rating, Sedge, Umbrella [13]: 0; Plant response rating, Blackgrass ([14]; 31 g ai/ha): 0; Plant response rating, Blackgrass ([14]; 125 g ai/ha): 0; Plant response rating, Foxtail, Giant ([15]; 31 g ai/ha): 0; Plant response rating, Foxtail, Giant ([15]; 125 g ai/ha): 0; Plant response rating, Foxtail, Giant ([16]; 31 g ai/ha): 0; Plant response rating, Foxtail, Giant ([16]; 125 g ai/ha): 0; Plant response rating, Galium ([17]; 31 g ai/ha): 10; Plant response rating, Galium ([17]; 125 g ai/ha): 30; Plant response rating, Ryegrass, Italian ([18]; 31 g ai/ha): 0; Plant response rating, Ryegrass, Italian ([18]; 125 g ai/ha): 0 |
| [O-][n+]1cccc(Oc2ncc(Cl)cn2)c1-n1cc(Br)cn1 [Compound 11] | – | – | – | – | – | – | – | – | – | – | – | – | – | – | – | – | – | – | – | – | Plant response rating, Pigweed ([1]; 1000 g ai/ha): 90; Plant response rating, Ragweed ([2]; 1000 g ai/ha): 20; Plant response rating, Ragweed ([3]; 1000 g ai/ha): 30; Plant response rating, Kochia (kochia (Kochia scoparia) [6]; 1000 g ai/ha): 60; Plant response rating, Barnyardgrass ([7]; 1000 g ai/ha): 0; Plant response rating, Kochia (kochia (Kochia scoparia) [8]; 1000 g ai/ha): 30; Plant response rating, Wheat ([9]; 1000 g ai/ha): 0; Plant response rating, Ryegrass, Italian ([10]; 1000 g ai/ha): 0; Plant response rating, Barnyardgrass ([11]; 1000 g ai/ha): 0; Plant response rating, Pigweed ([12]; 1000 g ai/ha): 100; Plant response rating, Corn (corn (Zea mays); 1000 g ai/ha): 0; Plant response rating, Blackgrass ([14]; 1000 g ai/ha): 10; Plant response rating, Foxtail, Giant ([15]; 1000 g ai/ha): 0; Plant response rating, Foxtail, Giant ([16]; 1000 g ai/ha): 0; Plant response rating, Galium ([17]; 1000 g ai/ha): 40; Plant response rating, Ryegrass, Italian ([18]; 1000 g ai/ha): 0 |
